Earlier results as cited in patent US20140348811A1, “COMPOSITIONS COMPRISING SUGAR-CYSTEINE PRODUCTS” (MAX INTERNATIONAL, LLC, priority 2011, published 2014).

Tests used:
[1] = tested on: acetaminophen hepatic and renal toxicity; details: mice, 2 g/kg
[2] = tested on: irradiation-induced bowel injury; details: mice, 1 g/kg
[3] = tested on: mice exposed to cyclophosphamide; details: 8 mmol/kg
glutathione levels = details: mice, 8 mmol/kg i.p.
[4] = administered directly to humans, wide dosage ranges
[5] = healthy humans, orally 8-10 g per day
ATP levels = details: dogs subjected to ischemia, about 3 g/day for at least 5 days

Row | Compound | protection against acetaminophen hepatic and renal toxicity [1] | protection against irradiation-induced bowel injury [2] | delivery of protective amounts of cysteine [3] | increased glutathione levels, heart (glutathione levels; heart) | increased glutathione levels, muscle tissue (glutathione levels; muscle tissue) | toxicity [4] | exercise capacity [5] | ATP levels (ATP levels)
1 | O=C(O)[C@@H]1CSC(C(O)C(O)C(O)CO)N1 (stereo partly drawn) [RibCys, 2(R,S)-D-ribo-(1′,2′,3′,4′-tetrahydroxybutyl)thiazolidine-4(R)-carboxylic acid] | protect mice against acetaminophen hepatic and renal toxicity | protect mice against irradiation-induced bowel injury | deliver effective protective amounts of cysteine | 1.5 times | 2.5 times | – | – | –
2 | O=C[C@H](O)[C@H](O)[C@H](O)CO [ribose] | – | – | – | – | – | essentially non-toxic | increase exercise capacity | effectively restored and maintained ATP levels
